Measurements taken from patent US7338974B2, “Macrocyclic diaminopropanes as beta-secretase inhibitors” (Bristol-Myers Squibb Company, priority 2005, dated 2008).
Read-outs that look alike come from different tables or passages of the source.

Key:
[1] = target: T1, BACE1 enzyme (Homo sapiens, UniProt P56817); assay: Radioligand displacement assay with a radiolabeled BACE inhibitor on HEK293-9B.A1 cell homogenate; assay type: binding; details: displacement of 1 nM tritiated radioligand, HEK293-9B.A1 homogenate, pH 5.0, 1.5 hr at 25° C.; read-out: Activity Rating (Activity based on IC50 values)
T1 construct: The HEK293-9B.A1 cell line, which overexpresses the BACE1 enzyme, was derived from HEK293 cells; endogenous in cells; washed membrane pellet / cell homogenate
Description: There are a number of methods by which inhibitors of the BACE enzyme can be identified experimentally. The enzyme can be obtained from membrane samples from natural tissues or cultured cells or can be expressed recombinantly in a host cell by well known methods of molecular biology. The whole enzyme or a portion thereof can be expressed, for example, in bacterial, insect or mammalian cells to obtain a catalytically active enzyme species. The enzymatic activity and/or ligand binding capability of the enzyme can be assessed within these membrane samples, or the enzyme can be purified to varying extents. As an illustrative example, the nucleic acid sequence encoding the pro and catalytic domains of human BACE can be appended on the 5′ end with an untranslated and signal sequence from the gene for acetylcholinesterase, and on the 3′ end with a sequence encoding a poly-histidine tag. This cDNA can then be expressed in Drosophila melanogaster S2 cells in which the signal and pro sequences of the transcribed/translated protein are removed by cellular proteases and the catalytic domain, appended by a C-terminal poly-histidine tag, is secreted out into the cellular medium. The enzyme can then be purified from the culture medium by nickel affinity chromatography by methods well known to those trained in the art [Mallender, W. et al., “Characterization of recombinant, soluble beta-secretase from an insect cell expression system.” Mol. Pharmacol. 2001, 59: 619-626]. Similar strategies for expressing and purifying various forms of BACE in bacterial, mammalian and other cell types would be known to one skilled in the art. A preferred method for determining the potency of a test compound in binding to the BACE enzyme is by moitoring the displacement of a suitable radioligand.
Radioligand displacement assays with a radiolabeled BACE inhibitor (WO 2004 013098, compound 3, where the methoxy group is substituted for C(3H)3) were carried out using standard methods (Keen, M. (1999) in Receptor Binding Techniques (Walker, J. M. ed) p. 106 Humana Press, Totowa, N.J.). The HEK293-9B.A1 cell line, which overexpresses the BACE1 enzyme, was derived from HEK293 cells (Simmons, N. L. (1990) A cultured human renal epithelioid cell line responsive to vasoactive intestinal peptide. Exp. Physiol. 75:309-19.) by RAGE™ (Harrington, J. J. et al. (2001) Creation of genome-wide protein expression libraries using random activation of gene expression. Nat. Biotechnol. 19:440-5.; U.S. Pat. Nos. 6,410,266 and 6,361,972). T225 flask cultures of HEK293-9B.A1 were grown to 80% confluency in DMEM supplemented with 2 mM L-glutamine, 10 μg/ml penicillin, 10 μg/ml streptomycin, 3 μg/ml puromycin, 100 nM methotrexate, and 10% fetal bovine serum (Invitrogen, Carlsbad, Calif.), harvested, and resuspended at 2×10^8 cells per 10 ml of lysis buffer consisting of 50 mM HEPES pH 7.0 containing a protease inhibitor cocktail of AEBSF 104 μM, aprotinin 80 nM, leupeptin 2 μM, bestatin 4 μM, pepstatin A 1.5 μM, and E-64 1.4 μM (0.1% of protease inhibitor cocktail P8340, Sigma-Aldrich, St. Louis, Mo.) at 4° C. The resuspended cells were homogenized using a Polytron (Brinkman, Westbury, N.Y.) at setting 6 for 10 sec., then centrifuged at 48,000×g for 10 min. The resulting pellet was washed by repeating the resuspension, homogenization and centrifugation steps. The final pellet was resuspended in buffer at 4° C. to yield a total protein concentration of 5 mg/ml, then aliquots were frozen in liquid nitrogen for further storage at −70° C. Immediately before carrying out a binding assay, an aliquot of cell homogenate was thawed and diluted to a concentration of 100 μg/ml in assay buffer consisting of 50 mM HEPES pH 5.0 and 0.1% CHAPSO. […]

[2] = rcm bond, 15-membered ring

T1 sequence (P56817 46-501): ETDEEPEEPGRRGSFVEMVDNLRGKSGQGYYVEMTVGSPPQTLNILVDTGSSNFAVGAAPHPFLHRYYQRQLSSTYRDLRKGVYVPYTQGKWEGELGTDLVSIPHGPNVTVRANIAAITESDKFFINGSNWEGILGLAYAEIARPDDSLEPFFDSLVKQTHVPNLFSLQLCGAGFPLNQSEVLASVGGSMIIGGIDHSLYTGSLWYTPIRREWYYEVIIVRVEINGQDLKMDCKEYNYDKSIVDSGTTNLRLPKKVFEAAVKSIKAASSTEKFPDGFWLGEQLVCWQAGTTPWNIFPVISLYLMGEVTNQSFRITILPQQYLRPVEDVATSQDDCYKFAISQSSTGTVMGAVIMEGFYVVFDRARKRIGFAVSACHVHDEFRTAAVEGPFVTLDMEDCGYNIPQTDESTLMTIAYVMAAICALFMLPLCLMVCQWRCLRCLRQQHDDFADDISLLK

Compound | IC50 [1] [nM] | other results
COc1ccc2c(c1)C1CC2OCC=CCC(N2CCCC2=O)C(=O)N[C@@H](Cc2ccccc2)[C@H](O)CN1 (stereo partly drawn) [Example 1, (4R,5S)-5-Benzyl-4-hydroxy-18-methoxy-8-(2-oxo-pyrrolidin-1-yl)-13-oxa-2,6-diaza-tricyclo[12.6.1.0^15,20]henicosa-10,15(20),16,18-tetraen-7-one] | > 1000 | ring closure, yield after HPLC ([2]; from C=CCOC1CC(NC[C@@H](O)[C@H](Cc2ccccc2)NC(=O)C(CC=C)N2CCCC2=O)c2cc(OC)ccc21, Grubbs II (20 mol%)/TsOH.H2O, CH2Cl2, 8.75 mM, 25.0 °C, 18.0 h): 97%
COc1ccc2c(c1)C1CC2OCCCCC(N2CCCC2=O)C(=O)N[C@@H](Cc2ccccc2)[C@H](O)CN1 (stereo partly drawn) [Example 2, (4R,5S)-5-Benzyl-4-hydroxy-18-methoxy-8-(2-oxo-pyrrolidin-1-yl)-13-oxa-2,6-diaza-tricyclo[12.6.1.0^15,20]henicosa-15(20),16,18-trien-7-one] | > 1000 | –
COc1ccc2c(c1)[C@@H]1C[C@H]2OCC=CC[C@H](N2CCCC2=O)C(=O)N[C@@H](Cc2cc(F)cc(F)c2)[C@H](O)CN1 [Example 3, (1S,4R,5S,8S,14R)-5-(3,5-Difluoro-benzyl)-4-hydroxy-18-methoxy-8-(2-oxo-pyrrolidin-1-yl)-13-oxa-2,6-diaza-tricyclo[12.6.1.0^15,20]henicosa-10,15(20),16,18-tetraen-7-one] | 10 to 1000 | ring closure, yield after HPLC ([2]; from C=CCO[C@@H]1C[C@H](NC[C@@H](O)[C@H](Cc2cc(F)cc(F)c2)NC(=O)[C@H](CC=C)N2CCCC2=O)c2cc(OC)ccc21, Hoveyda-Grubbs II (20 mol%), CH2Cl2, 7.15 mM, 25.0 °C, 16.0 h): 70%
CCCC[C@H]1CCN([C@H]2CC=CCO[C@@H]3C[C@H](NC[C@@H](O)[C@H](Cc4cc(F)cc(F)c4)NC2=O)c2cc(OC)ccc23)C1=O [Example 4, (1S,4R,5S,8S,14R)-8-((S)-3-Butyl-2-oxo-pyrrolidin-1-yl)-5-(3,5-difluoro-benzyl)-4-hydroxy-18-methoxy-13-oxa-2,6-diaza-tricyclo[12.6.1.0^15,20]henicosa-10,15(20),16,18-tetraen-7-one] | < 10 | ring closure, yield after HPLC ([2]; from C=CCO[C@@H]1C[C@H](NC[C@@H](O)[C@H](Cc2cc(F)cc(F)c2)NC(=O)[C@H](CC=C)N2CC[C@H](CCCC)C2=O)c2cc(OC)ccc21, Hoveyda-Grubbs II (10 mol%), CH2Cl2, 25.0 °C, 72.0 h): 46%
CCCC[C@H]1CCN([C@H]2CCCCO[C@@H]3C[C@H](NC[C@@H](O)[C@H](Cc4cc(F)cc(F)c4)NC2=O)c2cc(OC)ccc23)C1=O [Example 5, (1S,4R,5S,8S,14R)-8-((S)-3-Butyl-2-oxo-pyrrolidin-1-yl)-5-(3,5-difluoro-benzyl)-4-hydroxy-18-methoxy-13-oxa-2,6-diaza-tricyclo[12.6.1.0^15,20]henicosa-15(20),16,18-trien-7-one] | < 10 | –
CCC(C)[C@@]1(NC(C)=O)CCN([C@H]2CC=CCO[C@@H]3C[C@H](NC[C@@H](O)[C@H](Cc4ccccc4)NC2=O)c2cc(OC)ccc23)C1=O (stereo partly drawn) [Example 6, N—[(S)-1-((1S,4R,5S,8S,14R)-5-Benzyl-4-hydroxy-18-methoxy-7-oxo-13-oxa-2,6-diaza-tricyclo[12.6.1.0^15,20]henicosa-10,15(20),16,18-tetraen-8-yl)-3-sec-butyl-2-oxo-pyrrolidin-3-yl]-acetamide] | < 10 | ring closure, yield after HPLC ([2]; from C=CCO[C@@H]1C[C@H](NC[C@@H](O)[C@H](Cc2ccccc2)NC(=O)[C@H](CC=C)N2CC[C@](NC(C)=O)(C(C)CC)C2=O)c2cc(OC)ccc21, Hoveyda-Grubbs II (10 mol%), dichloroethane, 50.0 °C, 16.0 h): 50%
COc1ccc2c(c1)[C@@H]1C[C@H]2OCC=CC[C@H](N2CC[C@H](CC(C)C)C2=O)C(=O)N[C@@H](Cc2ccccc2)[C@H](O)CN1 [Example 7, (1S,4R,5S,8S,14R)-5-Benzyl-4-hydroxy-8-((S)-3-isobutyl-2-oxo-pyrrolidin-1-yl)-18-methoxy-13-oxa-2,6-diaza-tricyclo[12.6.1.0^15,20]henicosa-10,15(20),16,18-tetraen-7-one] | < 10 | ring closure, yield after HPLC ([2]; from C=CCO[C@@H]1C[C@H](NC[C@@H](O)[C@H](Cc2ccccc2)NC(=O)[C@H](CC=C)N2CC[C@H](CC(C)C)C2=O)c2cc(OC)ccc21, Hoveyda-Grubbs II (10 mol%), CH2Cl2, 8.9 mM, 25.0 °C, 16.0 h): 75%
